Measured values as given in patent publication US20080176838A1, “Dpp-IV Inhibitors” (SANTHERA PHARMACEUTICALS (DEUTSCHLAND) AG, priority 2004, published 2008).
pIC50: −log10 of the molar value.

Biological target: T1, DPP-IV (Homo sapiens, UniProt P27487)
T1 construct: Soluble human DPP-IV lacking the transmembrane anchor (Gly31-Pro766); Pre-Pro-alpha-mating factor leader (secretion fusion) (N, cleaved yes); made in house
Assay: Continuous fluorimetric assay of inhibition of DPP-IV peptidase activity (cleavage of Gly-Pro-AMC)
Format: biochemical
Conditions: substrate Gly-Pro-AMC 16 μM, pH 7.4, 25° C., 1% DMSO
Experimental: Inhibition of DPP-IV peptidase activity was monitored with a continuous fluorimetric assay. This assay is based on the cleavage of the substrate Gly-Pro-AMC (Bachem) by DPP-IV, releasing free AMC. The assay is carried out in 96-well microtiterplates. In a total volume of 100 μL, compounds are preincubated with […] DPP-IV employing a buffer containing 10 mM Hepes, 150 mM NaCl, 0.005% Tween 20 (pH 7.4). […] The final concentration of DMSO is 1%. The inhibitory potential of the compounds were determined.
Soluble human DPP-IV lacking the transmembrane anchor (Gly31-Pro766) was expressed in a recombinant YEAST-strain as Pre-Pro-alpha-mating fusion.

T1 sequence (P27487 31-766): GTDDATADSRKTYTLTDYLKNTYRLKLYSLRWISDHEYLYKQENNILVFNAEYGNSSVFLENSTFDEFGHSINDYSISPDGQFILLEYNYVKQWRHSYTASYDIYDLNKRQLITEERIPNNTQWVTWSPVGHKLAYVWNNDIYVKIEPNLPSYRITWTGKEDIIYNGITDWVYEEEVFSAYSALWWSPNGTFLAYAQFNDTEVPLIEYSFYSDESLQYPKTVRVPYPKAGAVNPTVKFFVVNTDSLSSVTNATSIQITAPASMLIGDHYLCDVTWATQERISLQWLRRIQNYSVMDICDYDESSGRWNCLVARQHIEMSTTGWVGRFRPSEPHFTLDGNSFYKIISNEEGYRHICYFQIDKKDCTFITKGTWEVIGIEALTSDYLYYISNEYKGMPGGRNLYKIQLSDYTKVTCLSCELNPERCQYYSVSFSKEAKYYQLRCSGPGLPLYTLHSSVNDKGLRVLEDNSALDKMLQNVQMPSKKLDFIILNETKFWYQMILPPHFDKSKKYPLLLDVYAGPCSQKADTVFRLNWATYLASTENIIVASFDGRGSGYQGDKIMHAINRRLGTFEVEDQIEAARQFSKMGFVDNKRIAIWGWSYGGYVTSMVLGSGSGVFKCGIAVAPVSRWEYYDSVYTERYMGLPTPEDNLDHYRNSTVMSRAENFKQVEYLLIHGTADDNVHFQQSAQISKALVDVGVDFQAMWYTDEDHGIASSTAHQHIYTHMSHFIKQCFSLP

N[C@@H](CCN1CCC[C@H]1CNS(=O)(=O)c1ccccc1)Cc1ccccc1F [Example 25] and N#Cc1cccc(S(=O)(=O)NC[C@@H]2CCCN2CC[C@H](N)Cc2ccccc2F)c1 [Example 31] cannot be ordered by pIC50: greater than 7.00 for the first, greater than 7.00 for the second.

N[C@@H](CCN1Cc2ccccc2C[C@H]1C(=O)NC1CC1)Cc1ccccc1F [Example 26] and N[C@@H](CCN1Cc2ccccc2C[C@H]1CNC(=O)C1CC1)Cc1ccccc1F [Example 28] fall in the same range of pIC50: 6.00 to 7.00 for the first, 6.00 to 7.00 for the second.

N[C@@H](CCN1CCC[C@H]1CNC(=O)C1CC1)Cc1ccccc1F [Example 27, Cyclopropanecarboxylic acid {1-[(3R)-amino-4-(2-fluoro-phenyl)-butyl]-pyrrolidin-(2S)-ylmethyl}-amide] and N[C@@H](CCN1CCC[C@H]1CNS(=O)(=O)C1CC1)Cc1ccccc1F [Example 29] cannot be ordered by pIC50: greater than 7.00 for the first, greater than 7.00 for the second.

CS(=O)(=O)NC[C@@H]1CCCN1CC[C@H](N)Cc1ccccc1F [Example 30] and N[C@@H](CCN1CCC[C@H]1CNS(=O)(=O)CC(F)(F)F)Cc1ccccc1F [Example 33] cannot be ordered by pIC50: greater than 7.00 for the first, greater than 7.00 for the second.

N[C@@H](CCN1CCOCC1CNS(=O)(=O)C1CC1)Cc1ccccc1F (some centres unmarked) [Example 35] and COC[C@@H]1CCCN1CC[C@H](N)Cc1ccccc1F [Example 48] fall in the same range of pIC50: 6.00 to 7.00 for the first, 6.00 to 7.00 for the second.

Compared with N[C@@H](CCN1CCC[C@H]1COCc1ccccc1)Cc1ccccc1F [Example 44, (1R)-3-[(2S)-2-Benzyloxymethyl-pyrrolidin-1-yl]-1-(2-fluoro-benzyl)-propylamine], N[C@@H](CCN1CCC[C@H]1COc1cccc(F)c1)Cc1ccccc1F [Example 46] is higher in pIC50: 6.00 to 7.00 for the first, greater than 7.00 for the second.

Compared with N[C@@H](CCN1CCC[C@H]1COc1cccc(F)c1)Cc1cccc(Cl)c1 [Example 45, (1R)-(3-Chloro-benzyl)-3-[(2S)-(3-fluoro-phenoxymethyl)-pyrrolidin-1-yl]-propylamine], N[C@@H](CCN1Cc2ccccc2C[C@H]1COc1cccc(F)c1)Cc1ccccc1F [Example 47] is lower in pIC50: greater than 7.00 for the first, 6.00 to 7.00 for the second.
